Reference: paper PMC10004777 (Molecules, 2023)

Assays:
[1] = test system: MCF-7 breast cancer cells; assay: Cell viability (MTT) assay, MCF-7; format: cell-based; conditions: for anti-proliferation activity on MCF-7 compared with GAA: MCF-7, 48 h
Method: MCF-7 is a commonly used tumor cell line.
(§1) The cell lines present in this study were obtained from Procell Life Science & Technology Co. Ltd. MCF-7, HepG2 and SJSA-1 cells were cultured in DMEM medium (DMEM, Gibco) supplemented with 10% fetal bovine serum (FBS, Gibco), 1% penicillin-streptomycin (Hyclone) at 37℃ in a humid environment with 5% CO2. HK-2 cells were cultured in DMEM/F12 (1:1) medium and placed in incubators in the same environment.
(§2) Cell viability was determined by MTT assay. MCF-7, HepG2, SJSA-1 and HK-2 cells (6 × 10^3 cells /well) were seeded in 96-well plates with serum-free medium for 24 h. […] After 48 or 72 h, 10 μL MTT (5 mg/mL, Beyotime) was added and incubated at 37 °C for 4 h. Then 100 μL of lysate was added. After complete dissolution of the crystal, the absorbance was measured at 540 nm and expressed as the average percentage of absorbance between treated and control cells. The value for control cells was set at 100%. Cell survival rate was calculated as the ratio of the absorbance of the cells and negative control after minus the blank absorbance respectively.

HK-2 cells = assay: Cell viability (MTT) assay, HK-2 normal cells (cytotoxicity); format: cell-based
Method: as §1, §2

[2] = test system: osteosarcoma cell line SJSA-1; assay: Cell viability (MTT) assay, SJSA-1; format: cell-based
Method: (§3) To investigate the selectivity of these derivatives towards different tumor cell lines, we also selected HepG2 and osteosarcoma cell line SJSA-1 cells to evaluate the anti-proliferation activity of the derivatives. […] Except for compounds A2 and A11, the effects of other compounds on SJSA-1 were not strong.
as §1, §2

HepG2 cells = assay: Cell viability (MTT) assay, HepG2; format: cell-based; conditions: for anti-proliferation activity on HepG2 (in words): HepG2, 48 h
Method: as §3, §1, §2

Compound | Viability of Cells (% of Control) ([1]; 25 µM) | Viability of Cells (% of Control) ([1]; 50 µM) | Viability of Cells (% of Control) ([1]; 100 µM) | anti-proliferation activity on MCF-7 compared with GAA [1] | toxicity to HK2 cells (in words) (HK-2 cells) | Viability of Cells (% of Control) (HK-2 cells; 50 µM) | Viability of Cells (% of Control) (HK-2 cells; 100 µM) | melting point [°C] | Viability of Cells (% of Control) ([2]; 50 µM) | Viability of Cells (% of Control) ([2]; 100 µM) | Viability of Cells (% of Control) (HepG2 cells; 25 µM) | Viability of Cells (% of Control) (HepG2 cells; 50 µM) | anti-proliferation activity on HepG2 (in words) (HepG2 cells) | anti-proliferation activity on SJSA-1 (in words) ([2]; SJSA-1, 72 h) | inhibition at 50 µM (HepG2 cells; Homo sapiens, HepG2, 50 µM (printed: below 50 µM), 48 h, read-out: inhibition rate of HepG2) [%]
C[C@H](CC(=O)C[C@@H](C)[C@H]1C[C@H](O)[C@@]2(C)C3=C(C(=O)C[C@]12C)[C@@]1(C)CCC(=O)C(C)(C)[C@@H]1C[C@@H]3O)C(=O)NC1Cc2ccccc2C1 [Compound A9, (2,3-Dihydro-1H-inden-2-yl)-(7β,15α,25R)-7,15-Dihydroxy-3,11,23-Trioxolanost-8-en-26-oic Amide] | 87.5 ± 7.6 % of Control | 53.3 ± 6.9 % of Control | 40.3 ± 7.8 % of Control | significant anti-proliferation activities | some toxicity | 79.0 ± 2.9 % of Control | 80.1 ± 2.8 % of Control | 199.7 to 200.3 | 99.2 ± 2.6 % of Control | 89.6 ± 3.8 % of Control | 64.2 ± 1.4 % of Control | 52.4 ± 2.1 % of Control | potent anti-proliferation activity |  | 
Cc1ccc(CCNC(=O)[C@H](C)CC(=O)C[C@@H](C)[C@H]2C[C@H](O)[C@@]3(C)C4=C(C(=O)C[C@]23C)[C@@]2(C)CCC(=O)C(C)(C)[C@@H]2C[C@@H]4O)cc1 [Compound A10, (4-Methylphenethyl)-(7β,15α,25R)-7,15-Dihydroxy-3,11,23-Trioxolanost-8-en-26-oic Amide] | 120.8 ± 4.8 % of Control | 118.3 ± 6.0 % of Control | 104.1 ± 2.2 % of Control |  |  | 110.9 ± 9.6 % of Control | 91.1 ± 5.5 % of Control | 221.9 to 223 | 80.0 ± 2.7 % of Control | 75.6 ± 4.8 % of Control | 57.9 ± 0.5 % of Control | 58.8 ± 1.4 % of Control |  |  | 
C[C@H](CC(=O)C[C@@H](C)[C@H]1C[C@H](O)[C@@]2(C)C3=C(C(=O)C[C@]12C)[C@@]1(C)CCC(=O)C(C)(C)[C@@H]1C[C@@H]3O)C(=O)NCCc1ccc(F)cc1 [Compound A11, (4-Fluorophenethyl)-(7β,15α,25R)-7,15-Dihydroxy-3,11,23-Trioxolanost-8-en-26-oic Amide] | 100.5 ± 2.5 % of Control | 101.8 ± 0.2 % of Control | 58.4 ± 5.5 % of Control |  |  | 89.8 ± 9.6 % of Control | 86.9 ± 2.7 % of Control | 188.1 to 189 | 56.1 ± 8.7 % of Control | 41.9 ± 3.1 % of Control | 78.5 ± 3.0 % of Control | 69.1 ± 2.0 % of Control |  | some selectivity for SJSA-1 | 
C[C@H](CC(=O)C[C@@H](C)[C@H]1C[C@H](O)[C@@]2(C)C3=C(C(=O)C[C@]12C)[C@@]1(C)CCC(=O)C(C)(C)[C@@H]1C[C@@H]3O)C(=O)NCCc1ccc(Cl)cc1 [Compound A12, (4-Chlorophenethyl)-(7β,15α,25R)-7,15-Dihydroxy-3,11,23-Trioxolanost-8-en-26-oic Amide] | 119.0 ± 3.4 % of Control | 110.5 ± 6.0 % of Control | 102.9 ± 3.8 % of Control |  |  | 124.1 ± 2.6 % of Control | 111.2 ± 6.5 % of Control | 195.4 to 196.1 | 73.5 ± 1.2 % of Control | 65.5 ± 1.5 % of Control | 29.1 ± 0.4 % of Control | 25.6 ± 0.8 % of Control |  |  | 74.4
C[C@H](CC(=O)C[C@@H](C)[C@H]1C[C@H](O)[C@@]2(C)C3=C(C(=O)C[C@]12C)[C@@]1(C)CCC(=O)C(C)(C)[C@@H]1C[C@@H]3O)C(=O)N1CCN(c2ccccc2)CC1 [Compound A15, (4-Phenylpiperazin-1-yl)-(7β,15α,25R)-7,15-Dihydroxy-3,11,23-Trioxolanost-8-en-26-oic Amide] | 74.3 ± 5.2 % of Control | 70.4 ± 1.5 % of Control | 66.5 ± 1.4 % of Control | significant anti-proliferation activities |  | 123.3 ± 5.5 % of Control | 111.0 ± 8.7 % of Control | 229.4 to 229.9 | 75.9 ± 0.9 % of Control | 83.5 ± 0.8 % of Control | 77.1 ± 2.1 % of Control | 99.3 ± 0.2 % of Control | weaker anti-proliferation effect |  | 
